Data reported in patent US20250333397A1 (REMIX THERAPEUTICS INC., priority 2021, published 2025).
Where two headings read alike, the source gives them in different places.

Key:
Assay type in all cases: cell-based, human
[1] = test system: Target C mRNA; assay: RT-qPCR splicing assay panel, Target C canonical junction (CJ) mRNA; conditions: canonical junction (CJ) mRNA, RT-qPCR panel, Table 4A, read-out: Target C, decrease in CJ mRNA levels, IC50
Summary of the method: (§1)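 Junction-specific RT-qPCR read the canonical exon-exon junction and the compound-induced alternative-exon junction, normalized to GAPDH, GUSB or PPIA and then to DMSO (2^(-ΔΔCt)). Input was lysate from A673 or K562 cells exposed for 24 h to compound up to 10 uM.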

[2] = test system: SMN2 mRNA; assay: RT-qPCR splicing assay panel, SMN2 canonical junction (CJ) mRNA; conditions: canonical junction (CJ) mRNA, RT-qPCR panel, Table 4A, read-out: SMN2, decrease in CJ mRNA levels, IC50
Summary of the method: as §1

[3] = test system: MYB mRNA; assay: RT-qPCR splicing assay, MYB canonical (CJ) and alternative (AJ) junction mRNA; conditions: for AC50: read-out: MYB AJ (AC50, increase in AJ mRNA)
Summary of the method: as §1

[4] = test system: HTT mRNA; assay: RT-qPCR splicing assay, HTT canonical (CJ) and alternative (AJ) junction mRNA; conditions: for AC50: read-out: HTT AJ (AC50, increase in AJ mRNA)
Summary of the method: as §1

[5] = Table 3A, A673 or K562 cells, 24 h treatment
[6] = Homo sapiens, 24 h, Table 3A, A673 or K562 cells, 24 h treatment
[7] = Homo sapiens, 24 h, Table 3A, A673 or K562 cells, 24 h treatment, read-out: MYB CJ (IC50, decrease in CJ mRNA)
[8] = Homo sapiens, canonical junction (CJ) mRNA, RT-qPCR panel, Table 4A, read-out: MYB, decrease in CJ mRNA levels, IC50
[9] = Homo sapiens, 24 h, Table 3A, A673 or K562 cells, 24 h treatment, read-out: HTT CJ (IC50, decrease in CJ mRNA)
[10] = Homo sapiens, canonical junction (CJ) mRNA, RT-qPCR panel, Table 4A, read-out: HTT, decrease in CJ mRNA levels, IC50

Row | Structure (SMILES) | IC50 [1] [µM] | IC50 [2] [µM] | AC50 [3, 5] [µM] | IC50 ([3]; Table 3A, A673 or K562 cells, 24 h treatment, read-out: MYB CJ (IC50, decrease in CJ mRNA)) [µM] | IC50 ([3]; canonical junction (CJ) mRNA, RT-qPCR panel, Table 4A, read-out: MYB, decrease in CJ mRNA levels, IC50) [µM] | AC50 [4, 5] [µM] | IC50 ([4]; Table 3A, A673 or K562 cells, 24 h treatment, read-out: HTT CJ (IC50, decrease in CJ mRNA)) [µM] | IC50 ([4]; canonical junction (CJ) mRNA, RT-qPCR panel, Table 4A, read-out: HTT, decrease in CJ mRNA levels, IC50) [µM] | IC50 ([1]; Homo sapiens) [µM] | IC50 ([2]; Homo sapiens) [µM] | AC50 [3, 6] [µM] | IC50 [3, 7] [µM] | IC50 [3, 8] [µM] | AC50 [4, 6] [µM] | IC50 [4, 9] [µM] | IC50 [4, 10] [µM]
1 | Cc1nc(-c2ccc(-c3ccc(N4CCC(NC5CCC5)C4)nn3)c(O)c2)cs1 (stereo not shown) [Compound 413] | > 10 | 1 to 10 | 1 to 10 | 1 to 10 | 1 to 10 | 1 to 10 | 1 to 10 | 1 to 10 |  |  |  |  |  |  |  | 
2 | COc1cc(-c2cc(O)c(-c3ccc(N4CC[C@@H](N[C@H]5C[C@H](F)C5)C4)nn3)cc2F)cnn1 [Compound 232] |  |  |  |  |  |  |  |  | 0.1 to 1 | < 0.1 | 0.1 to 1 | 0.1 to 1 | 0.1 to 1 | 0.1 to 1 | < 0.1 | < 0.1
3 | Oc1cc(-c2cn[nH]c2)c(F)cc1-c1ccc(N2CCC(NC3CC3)C2)nn1 (stereo in doubt) [Compound 105, 2-{6-[(3R)-3-(cyclopropylamino)pyrrolidin-1-yl]pyridazin-3-yl}-4-fluoro-5-(1H-pyrazol-4-yl)phenol] |  |  |  |  |  |  |  |  | < 0.1 | < 0.1 | 0.1 to 1 | 0.1 to 1 | 0.1 to 1 | < 0.1 | < 0.1 | < 0.1
4 | COc1cc(-c2ccc(-c3ccc(N4CCC(NC5CC(C)(C)C5)C4)nn3)c(O)c2)cnn1 (stereo not shown) [Compound 352, 2-(6-{3-[(3,3-dimethylcyclobutyl)amino]pyrrolidin-1-yl}pyridazin-3-yl)-5-(6-methoxypyridazin-4-yl)phenol] |  |  |  |  |  |  |  |  | 0.1 to 1 | 0.1 to 1 | 1 to 10 | 0.1 to 1 | 0.1 to 1 | 0.1 to 1 | 0.1 to 1 | 0.1 to 1
5 | Cc1ncc(-c2ccc(-c3ccc(N4CC[C@H](NCC5CC5)C4)nn3)c(O)c2)s1 [Compound 380, 2-{6-[(3S)-3-[(cyclopropylmethyl)amino]pyrrolidin-1-yl]pyridazin-3-yl}-5-(2-methyl-1,3-thiazol-5-yl)phenol] |  |  |  |  |  |  |  |  | < 0.1 | < 0.1 | < 0.1 | < 0.1 | < 0.1 | < 0.1 | < 0.1 | < 0.1
6 | Cc1ncc(-c2cc(O)c(-c3ccc(N4CC[C@@H](N[C@@H](C)C5CC5)C4)nn3)cc2F)s1 [Compound 373] |  |  |  |  |  |  |  |  | < 0.1 | < 0.1 | < 0.1 | < 0.1 | < 0.1 | < 0.1 | < 0.1 | < 0.1
7 | Cc1ncc(-c2ccc(-c3ccc(N4CC[C@@H](N(C)C5CCC5)C4)nn3)c(O)c2)s1 [Compound 270, 2-{6-[(3R)-3-[cyclobutyl(methyl)amino]pyrrolidin-1-yl]pyridazin-3-yl}-5-(2-methyl-1,3-thiazol-5-yl) phenol] |  |  |  |  |  |  |  |  | > 10 | 0.1 to 1 | > 10 | > 10 | > 10 | > 10 | > 10 | > 10
8 | Cc1ccc(-c2cc(O)c(-c3ccc(N4CC[C@@H](NC5CCC5)C4)nn3)cc2F)cn1 [Compound 222] |  |  |  |  |  |  |  |  | 1 to 10 | 0.1 to 1 | 1 to 10 | 0.1 to 1 | 0.1 to 1 | 0.1 to 1 | 0.1 to 1 | 0.1 to 1
9 | Cc1cc(-c2ccc(-c3ccc(N4CC[C@H](NC5CCC5)C4)nn3)c(O)c2)cnn1 [Compound 291, 2-{6-[(3S)-3-(cyclobutylamino)pyrrolidin-1-yl]pyridazin-3-yl}-5-(6-methylpyridazin-4-yl)phenol] |  |  |  |  |  |  |  |  | > 10 | 1 to 10 | > 10 | > 10 | > 10 | > 10 | 1 to 10 | 1 to 10
10 | COc1cc(-c2ccc(-c3ccc(N4CCC(CNC5CCC5)C4)nn3)c(O)c2)cnn1 (stereo not shown) [Compound 348, 2-(6-{3-[(cyclobutylamino)methyl]pyrrolidin-1-yl}pyridazin-3-yl)-5-(6-methoxypyridazin-4-yl)phenol] |  |  |  |  |  |  |  |  | 0.1 to 1 | < 0.1 | 1 to 10 | 0.1 to 1 | 0.1 to 1 | 0.1 to 1 | < 0.1 | < 0.1
11 | Cc1ncc(-c2cc(O)c(-c3ccc(N4CCC(NC5CCCCC5)C4)nn3)cc2F)s1 (stereo not shown) [Compound 410] |  |  |  |  |  |  |  |  | 0.1 to 1 | < 0.1 | 0.1 to 1 | 1 to 10 | 1 to 10 | < 0.1 | < 0.1 | < 0.1
12 | Cc1ncc(-c2cc(O)c(-c3ccc(N4CC[C@@H](NC(C)(C)C)C4)nn3)cc2F)s1 [Compound 338, 2-{6-[(3R)-3-(tert-butylamino)pyrrolidin-1-yl]pyridazin-3-yl}-4-fluoro-5-(2-methyl-1,3-thiazol-5-yl) phenol] |  |  |  |  |  |  |  |  | < 0.1 | < 0.1 | < 0.1 | < 0.1 | < 0.1 | < 0.1 | < 0.1 | < 0.1
13 | COc1cc(-c2ccc(-c3ccc(N4CC[C@](C)(NCC5CC5)C4)nn3)c(O)c2)ncn1 [Compound 376, 2-{6-[(3S)-3-[(cyclopropylmethyl)amino]-3-methylpyrrolidin-1-yl]pyridazin-3-yl}-5-(6-methoxypyrimidin-4-yl)phenol] |  |  |  |  |  |  |  |  | 0.1 to 1 | < 0.1 | 0.1 to 1 | 0.1 to 1 | 0.1 to 1 | < 0.1 | < 0.1 | < 0.1
14 | Oc1cc(-c2cnnc(C3CC3)c2)ccc1-c1ccc(N2CC[C@@H](NC3CCC3)C2)nn1 [Compound 279, 2-{6-[(3R)-3-(cyclobutylamino)pyrrolidin-1-yl]pyridazin-3-yl}-5-(6-cyclopropylpyridazin-4-yl)phenol] |  |  |  |  |  |  |  |  | > 10 | 0.1 to 1 | > 10 | > 10 | > 10 | > 10 | 1 to 10 | 1 to 10
15 | COc1nc(-c2ccc(N3CCC(NC(C)(C)C)C3)nn2)ccc1-c1cnc(C)s1 (stereo not shown) [Compound 355] |  |  |  |  |  |  |  |  | < 0.1 | < 0.1 | 0.1 to 1 | 0.1 to 1 | 0.1 to 1 | < 0.1 | < 0.1 | < 0.1
16 | COc1nc(-c2cnc(N3CCC(NC4CCC4)C3)nn2)ccc1-c1cnc(C)s1 (stereo not shown) [Compound 421] |  |  |  |  |  |  |  |  | 0.1 to 1 | 0.1 to 1 | 0.1 to 1 | 0.1 to 1 | 0.1 to 1 | 0.1 to 1 | 0.1 to 1 | 0.1 to 1
17 | Oc1cc(-c2cn[nH]c2)ccc1-c1ccc(N2CCC(NC3(C(F)(F)F)CC3)C2)nn1 (stereo not shown) [Compound 110, 5-(1H-pyrazol-4-yl)-2-[6-(3-{[1-(trifluoromethyl)cyclopropyl]amino}pyrrolidin-1-yl)pyridazin-3-yl]phenol] |  |  |  |  |  |  |  |  | > 10 | > 10 | > 10 | > 10 | > 10 | > 10 | > 10 | > 10
18 | Cc1ncc(-c2cc(O)c(-c3ccc(N4CC[C@@](C)(NCC5CC5)C4)nn3)cc2F)s1 (single isomer, unassigned) [Compound 399] |  |  |  |  |  |  |  |  | < 0.1 | < 0.1 | 0.1 to 1 | 0.1 to 1 | 0.1 to 1 | < 0.1 | < 0.1 | < 0.1
19 | COc1cc(-c2cc(O)c(-c3ccc(N4CCC(N[C@H]5C[C@@H](F)C5)C4)nn3)cc2F)cnn1 (stereo partly shown) [Compound 273, 4-fluoro-5-(6-methoxypyridazin-4-yl)-2-[6-(3-{[(1s,3s)-3-fluorocyclobutyl]amino}pyrrolidin-1-yl)pyridazin-3-yl]phenol] |  |  |  |  |  |  |  |  | 0.1 to 1 | < 0.1 | 0.1 to 1 | 0.1 to 1 | 0.1 to 1 | 0.1 to 1 | 0.1 to 1 | 0.1 to 1
20 | COc1cc(-c2ccc(-c3ccc(N4CC[C@@H](CNC5CCC5)C4)nn3)c(O)c2)cnn1 [Compound 440, 2-{6-[(3S)-3-[(cyclobutylamino)methyl]pyrrolidin-1-yl]pyridazin-3-yl}-5-(6-methoxypyridazin-4-yl)phenol] |  |  |  |  |  |  |  |  | 0.1 to 1 | < 0.1 | 0.1 to 1 | 0.1 to 1 | 0.1 to 1 | 0.1 to 1 | < 0.1 | < 0.1
